From patent US9150585B2, “Analogs of camptothecin” (FL Therapeutics, LLC, priority 2012, dated 2015)
Blank lines part the entries; values can stand above or below the compound they belong to.

Tests used:
[1] = target: Human serum albumin (HSA) (Homo sapiens, UniProt P02768); assay: HSA-binding assay (equilibrium dialysis); settings: isolated protein
Procedure: Equilibrium dialysis was performed in a 24-well BD Gentest Serum Binding System (BD Biosciences, Woburn, Mass.). Human serum albumin (HSA) at 0.6 mM was prepared by dissolving in phosphate buffered saline (PBS: 4.01 mL 1 M K2HPO4+0.99 mL 1 M KH2PO4+1.37 mL 5 M NaCl+43.63 mL water). After washing and soaking the 24-well BD Gentest Serum Binding System with water, 30% ethanol, and PBS, 750 μL of HSA and 250 μL of PBS were dispensed into each donor and receiver well, respectively. 3.75 μL of 1 mM test compound or wafarin (as control) was spiked into HSA in each donor well. The duplicate incubations were performed at 37° C. for 20 hrs.
After incubation, HSA and buffer samples collected from donor and receiver wells, together with calibration standard samples, were prepared in 96-well plates as shown in Table 5.
The plates were then capped, vortexed, and centrifuged at 3500 rpm for 10 minutes. The supernatant was injected into LC-MS/MS. Sample analysis was performed on an LC/MS/MS system composed of Shimadzu Prominence pumps, SIL-20ACHT autosampler, and Applied Biosystems/MDS Sciex API 3200.

[2] = Persistence in plasma (incubation with human plasma, LC-MS/MS); type: in vitro ADME; settings: for Peak Area Ratio (Analyte/IS) Human Plasma 0 min Replicate 1 / Peak Area Ratio (Analyte/IS) Human Plasma 0 min Replicate 2 / Peak Area Ratio (Analyte/IS) Human Plasma 60 min Replicate 1 / Peak Area Ratio (Analyte/IS) Human Plasma 60 min Replicate 2 / % Remaining after 1-hr Incubation at 37° C. in Human Plasma, Average / % Remaining after 1-hr Incubation at 37° C. in Human Plasma, Replicate 1 / % Remaining after 1-hr Incubation at 37° C. in Human Plasma, Replicate 2: 10 μM
Procedure: Test compounds and control (procaine) were incubated at a concentration of 10 μM with human plasma. The duplicate incubations, conducted in 96-well plates in a shaking water bath maintained at 37° C., were performed for 0 and 60 minutes and quenched by addition of acetonitrile.
After quenching by acetonitrile, the plates were capped, vortexed, and centrifuged at 3000 rpm for 10 minutes. The supernatant was injected into LC-MS/MS.
[formula] […] FL-001 and FL-003 are stable in human plasma, with a percent remaining of 127 and 89, respectively. Using the same protocol, the percent remaining of Camptothecin after 1-hr incubation in human plasma is 11%.

[3] = in presence of HSA; cited from earlier work
[4] = cited from earlier work
[5] = human plasma, 37° C., replicate 1
[6] = human plasma, 37° C., replicate 2

Chain of Human serum albumin (HSA) (P02768 25-609): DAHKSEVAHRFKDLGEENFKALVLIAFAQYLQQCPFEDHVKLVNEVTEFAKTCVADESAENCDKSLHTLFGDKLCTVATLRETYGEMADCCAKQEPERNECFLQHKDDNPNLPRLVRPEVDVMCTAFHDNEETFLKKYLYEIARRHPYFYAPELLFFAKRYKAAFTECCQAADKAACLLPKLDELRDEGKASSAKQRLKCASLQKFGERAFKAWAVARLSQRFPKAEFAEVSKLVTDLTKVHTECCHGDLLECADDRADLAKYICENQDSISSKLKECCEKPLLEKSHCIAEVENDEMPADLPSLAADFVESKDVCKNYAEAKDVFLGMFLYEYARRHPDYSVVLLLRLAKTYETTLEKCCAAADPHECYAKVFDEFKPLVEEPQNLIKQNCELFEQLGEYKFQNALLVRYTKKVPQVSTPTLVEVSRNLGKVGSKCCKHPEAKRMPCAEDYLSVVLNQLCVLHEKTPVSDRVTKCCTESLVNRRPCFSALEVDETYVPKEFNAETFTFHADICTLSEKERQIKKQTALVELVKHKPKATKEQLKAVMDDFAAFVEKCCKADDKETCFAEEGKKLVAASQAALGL

Compound: CCCCCCCCCCCCCCCC(=O)N[C@@H](CCC(=O)NCC(=O)O[C@]1(CC)C(=O)OCc2c1cc1n(c2=O)Cc2c-1nc1ccc(O)cc1c2CC)C(=O)O [FL-033]
fraction unbound at 20 h, 5 μM [1]: < 0.001

Peak Area Ratio (Analyte/IS) Human Plasma 0 min Replicate 1 [2, 5]: 1.47
Peak Area Ratio (Analyte/IS) Human Plasma 0 min Replicate 2 [2, 6]: 1.75
Peak Area Ratio (Analyte/IS) Human Plasma 60 min Replicate 1 [2, 5]: 1.96
Peak Area Ratio (Analyte/IS) Human Plasma 60 min Replicate 2 [2, 6]: 2.13
% Remaining after 1-hr Incubation at 37° C. in Human Plasma, Average ([2]; human, plasma, 1 h): 127%
% Remaining after 1-hr Incubation at 37° C. in Human Plasma, Replicate 1 ([2]; human, plasma, 1 h): 122%
% Remaining after 1-hr Incubation at 37° C. in Human Plasma, Replicate 2 ([2]; human, plasma, 1 h): 132%
fraction unbound at 20 h, 5 μM [1]: < 0.001
Compound: CCCCCCCCCCCCCCCCC(NC(=O)CCC(=O)O[C@]1(CC)C(=O)OCc2c1cc1n(c2=O)Cc2cc3ccccc3nc2-1)C(=O)O (stereo partly drawn) [FL-001]

Compound: CCCCCCCCCCCCCCCCC(NC(=O)C(CCCCN)NC(=O)CCC(=O)O[C@]1(CC)C(=O)OCc2c1cc1n(c2=O)Cc2cc3ccccc3nc2-1)C(=O)O (stereo partly drawn) [FL-013]
fraction unbound at 20 h, 5 μM [1]: < 0.001

Compound: CC[C@@]1(O)C(=O)OCc2c1cc1n(c2=O)Cc2cc3ccccc3nc2-1 [Camptothecin]
percent remaining after 1-hr incubation in human plasma ([2]; same protocol, human plasma, 1 hr): 11%

Compound: CCCCCCCCCCCCCCCCC(NC(=O)CCCC(=O)O[C@]1(CC)C(=O)OCc2c1cc1n(c2=O)Cc2cc3c(CN(C)C)c(O)ccc3nc2-1)C(=O)O (stereo partly drawn) [FL-010]
fraction unbound at 20 h, 5 μM [1]: < 0.002

fraction unbound at 20 h, 5 μM [1]: 0.015
Compound: CCCCCCCCC(NC(=O)CCC(=O)O[C@]1(CC)C(=O)OCc2c1cc1n(c2=O)Cc2cc3c(CN(C)C)c(O)ccc3nc2-1)C(=O)O (stereo partly drawn) [FL-006]

fraction unbound at 20 h, 5 μM [1]: < 0.002
Compound: CCCCCCCCCCCCCCCCC(NC(=O)CCC(=O)O[C@]1(CC)C(=O)OCc2c1cc1n(c2=O)Cc2cc3c(CN(C)C)c(O)ccc3nc2-1)C(=O)O (stereo partly drawn) [FL-004]

Compound: CCCCCCCCCCCCCCCCC(NC(=O)CCC(=O)O[C@]1(CC)C(=O)OCc2c1cc1n(c2=O)Cc2c-1nc1ccc(O)cc1c2CC)C(=O)O (stereo partly drawn) [FL-003]
Peak Area Ratio (Analyte/IS) Human Plasma 0 min Replicate 1 [2, 5]: 3.91
Peak Area Ratio (Analyte/IS) Human Plasma 0 min Replicate 2 [2, 6]: 4.03
Peak Area Ratio (Analyte/IS) Human Plasma 60 min Replicate 1 [2, 5]: 3.37
Peak Area Ratio (Analyte/IS) Human Plasma 60 min Replicate 2 [2, 6]: 3.73
% Remaining after 1-hr Incubation at 37° C. in Human Plasma, Average ([2]; human plasma, 37° C., 1 hr, average of duplicates): 89%
% Remaining after 1-hr Incubation at 37° C. in Human Plasma, Replicate 1 ([2]; human plasma, 37° C., 1 hr, replicate 1): 85%
% Remaining after 1-hr Incubation at 37° C. in Human Plasma, Replicate 2 ([2]; human plasma, 37° C., 1 hr, replicate 2): 94%
fraction unbound at 20 h, 5 μM [1]: < 0.001

Compound: CCN(CC)CCOC(=O)c1ccc(N)cc1 [Procaine, reference compound]
Peak Area Ratio (Analyte/IS) Human Plasma 0 min Replicate 1 [2, 5]: 0.60
Peak Area Ratio (Analyte/IS) Human Plasma 0 min Replicate 2 [2, 6]: 1.21
Peak Area Ratio (Analyte/IS) Human Plasma 60 min Replicate 1 [2, 5]: 0.00
Peak Area Ratio (Analyte/IS) Human Plasma 60 min Replicate 2 [2, 6]: 0.11
% Remaining after 1-hr Incubation at 37° C. in Human Plasma, Average ([2]; human, plasma, 1 h): 6%
% Remaining after 1-hr Incubation at 37° C. in Human Plasma, Replicate 1 ([2]; human, plasma, 1 h): 0%
% Remaining after 1-hr Incubation at 37° C. in Human Plasma, Replicate 2 ([2]; human, plasma, 1 h): 12%

Compound: CC[C@@]1(O)C(=O)OCc2c1cc1n(c2=O)Cc2cc3c(N)cccc3nc2-1 [9-Aminocamptothecin]
equilibrium concentration of active (lactone) form in blood [3]: less than 0.5%

Compound: CCCCCCCCCCCCC(NC(=O)CCC(=O)O[C@]1(CC)C(=O)OCc2c1cc1n(c2=O)Cc2cc3c(CN(C)C)c(O)ccc3nc2-1)C(=O)O (stereo partly drawn) [FL-008]
fraction unbound at 20 h, 5 μM [1]: < 0.002

Compound: CC(=O)CC(c1ccccc1)c1c(O)c2ccccc2oc1=O (stereo not drawn) [Warfarin]
protein binding in human plasma (literature values) [4]: 98-100%

Compound: CCCCCCCCCCCCCCCC(=O)N(CCC(=O)O[C@]1(CC)C(=O)OCc2c1cc1n(c2=O)Cc2cc3ccccc3nc2-1)CC(=O)O [FL-015]
fraction unbound at 20 h, 5 μM [1]: < 0.001
